One assay has as its target c-Kit (Homo sapiens (Human), UniProt P10721). The assay can be described thus: Inhibition of c-Kit kinase activity (HTRF KinEASE-TK). In kind it is biochemical. The note with it: biochemical, HTRF KinEASE-TK. In outline: (§1)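 Recombinant kinases (2 nM CSF1R and c-Kit, 10 nM PDGFRα/β, 2× working) preincubated 1 h with compound in 50 mM HEPES pH 7.4, 5 mM MgCl2 (c-Kit) or 10 mM (others), 2 mM MnCl2; 2× ATP: c-Kit 16 μM, PDGFRα 1 μM, PDGFRβ 40 μM, CSF1R 20 μM. 120 min reaction at rt; TR-FRET 665/620 nm; IC50 by 4-parameter fit.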

A further assay deals with PDGFRα (Homo sapiens (Human), UniProt P16234). Nature of the assay: Inhibition of PDGFRα kinase activity (HTRF KinEASE-TK). Conditions: biochemical, HTRF KinEASE-TK. The method, boiled down: as §1
Sequence of PDGFRα (P16234 24-1089): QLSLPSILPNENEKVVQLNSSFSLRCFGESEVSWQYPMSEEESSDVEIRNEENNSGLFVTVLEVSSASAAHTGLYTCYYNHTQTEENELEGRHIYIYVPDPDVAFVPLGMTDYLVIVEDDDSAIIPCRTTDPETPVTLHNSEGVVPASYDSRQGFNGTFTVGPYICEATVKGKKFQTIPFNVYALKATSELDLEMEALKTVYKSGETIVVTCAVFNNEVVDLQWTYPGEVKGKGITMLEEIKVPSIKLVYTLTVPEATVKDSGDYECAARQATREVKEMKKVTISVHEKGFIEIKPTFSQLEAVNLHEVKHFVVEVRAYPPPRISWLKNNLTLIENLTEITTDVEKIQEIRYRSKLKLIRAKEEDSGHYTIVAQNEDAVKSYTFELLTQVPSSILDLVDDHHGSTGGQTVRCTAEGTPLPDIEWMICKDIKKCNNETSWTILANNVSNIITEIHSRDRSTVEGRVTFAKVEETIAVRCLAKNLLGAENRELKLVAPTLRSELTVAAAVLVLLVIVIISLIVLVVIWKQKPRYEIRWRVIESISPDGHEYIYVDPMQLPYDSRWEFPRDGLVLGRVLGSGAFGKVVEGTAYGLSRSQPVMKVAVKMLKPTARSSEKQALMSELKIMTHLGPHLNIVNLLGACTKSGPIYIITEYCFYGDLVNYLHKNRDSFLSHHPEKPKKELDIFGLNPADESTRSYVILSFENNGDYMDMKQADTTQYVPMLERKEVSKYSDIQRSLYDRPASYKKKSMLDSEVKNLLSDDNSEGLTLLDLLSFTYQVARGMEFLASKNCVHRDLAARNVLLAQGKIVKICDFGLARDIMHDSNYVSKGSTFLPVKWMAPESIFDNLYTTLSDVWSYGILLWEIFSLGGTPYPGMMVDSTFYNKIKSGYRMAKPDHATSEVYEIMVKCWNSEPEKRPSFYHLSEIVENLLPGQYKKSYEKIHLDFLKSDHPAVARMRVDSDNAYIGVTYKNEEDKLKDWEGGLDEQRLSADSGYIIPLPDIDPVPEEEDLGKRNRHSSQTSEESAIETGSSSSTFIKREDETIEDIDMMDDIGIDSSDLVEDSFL
In general terms: TR-FRET usually uses a lanthanide donor and a delayed reading to cut background.

The target of another assay is CSF1R (Homo sapiens (Human), UniProt P07333). The assay can be described thus: Inhibition of CSF1R kinase activity (HTRF KinEASE-TK). Conditions: biochemical, HTRF KinEASE-TK. The method, boiled down:
as §1

A further assay has as its target PDGFRβ (Homo sapiens (Human), UniProt P09619). Nature of the assay: Inhibition of PDGFRβ kinase activity (HTRF KinEASE-TK). The note with it: biochemical, HTRF KinEASE-TK. The method, boiled down:
as §1

The target in another assay is FLT3 (Homo sapiens (Human), UniProt P36888). The assay can be described thus: Inhibition of FLT3 kinase activity (HTRF KinEASE-TK). In kind it is biochemical. Conditions: biochemical, HTRF KinEASE-TK. The method, boiled down: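 FLT3 tyrosine kinase activity was measured with the HTRF KinEASE-TK kit by following phosphorylation of a biotinylated TK peptide. After the 45 min reaction, 10 μL of detection mix was added: 0.2 μM (2×) Streptavidin-XL665 and 2 μM (2×) TK-Antibody-Cryptate in detection buffer. After 60 min, TR-FRET was read on an Envision as the 665 nm/620 nm emission ratio with 320 nm excitation.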
Sequence of FLT3 (P36888 27-993): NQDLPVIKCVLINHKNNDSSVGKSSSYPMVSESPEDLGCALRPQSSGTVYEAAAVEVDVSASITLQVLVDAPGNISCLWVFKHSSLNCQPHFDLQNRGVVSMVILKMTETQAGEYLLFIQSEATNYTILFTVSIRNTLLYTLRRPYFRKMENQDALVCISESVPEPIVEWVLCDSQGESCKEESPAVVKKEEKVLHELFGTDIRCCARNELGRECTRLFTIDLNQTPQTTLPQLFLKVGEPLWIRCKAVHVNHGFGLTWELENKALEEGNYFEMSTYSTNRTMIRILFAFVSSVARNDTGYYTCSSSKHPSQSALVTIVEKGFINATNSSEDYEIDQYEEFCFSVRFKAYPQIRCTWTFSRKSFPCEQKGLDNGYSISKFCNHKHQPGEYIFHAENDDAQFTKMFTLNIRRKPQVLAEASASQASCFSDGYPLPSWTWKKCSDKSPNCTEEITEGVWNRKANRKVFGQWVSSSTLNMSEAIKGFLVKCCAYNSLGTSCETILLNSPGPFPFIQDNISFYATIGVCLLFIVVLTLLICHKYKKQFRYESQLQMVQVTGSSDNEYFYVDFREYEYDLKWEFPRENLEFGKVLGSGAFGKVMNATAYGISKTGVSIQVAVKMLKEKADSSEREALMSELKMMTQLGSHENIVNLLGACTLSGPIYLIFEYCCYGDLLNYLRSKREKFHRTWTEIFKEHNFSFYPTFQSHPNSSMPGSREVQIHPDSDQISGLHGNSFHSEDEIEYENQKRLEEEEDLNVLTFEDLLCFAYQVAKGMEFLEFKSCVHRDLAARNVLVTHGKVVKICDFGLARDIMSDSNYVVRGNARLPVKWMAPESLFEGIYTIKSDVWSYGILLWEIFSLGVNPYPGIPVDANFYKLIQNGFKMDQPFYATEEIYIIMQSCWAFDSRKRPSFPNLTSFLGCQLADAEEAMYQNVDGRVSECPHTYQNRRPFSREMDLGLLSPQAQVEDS

In assay [1] the test system is Phospho-KIT (Y703) in M07e cells. The assay can be described thus: Phospho-KIT (Y703) cellular assay in M07e cells. In kind it is cell-based. Conditions: M-07e; Phospho-KIT (Y703), M07e cells; read-out: M07e Cell IC50. In outline: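 Serum-starved M07e cells preincubated 50 min at 37° C with 11-point half-log compound titration, then stimulated 10 min with SCF at 90.9 ng/mL final. Fixed, permeabilized cells stained for phospho-KIT Y703 and read by flow cytometry (live-gated geometric mean); IC50 by 4-parameter fit normalized to DMSO and positive control.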

A word on the IC50: it is the midpoint of a concentration-inhibition curve.

Sequence of CSF1R (P07333 20-972): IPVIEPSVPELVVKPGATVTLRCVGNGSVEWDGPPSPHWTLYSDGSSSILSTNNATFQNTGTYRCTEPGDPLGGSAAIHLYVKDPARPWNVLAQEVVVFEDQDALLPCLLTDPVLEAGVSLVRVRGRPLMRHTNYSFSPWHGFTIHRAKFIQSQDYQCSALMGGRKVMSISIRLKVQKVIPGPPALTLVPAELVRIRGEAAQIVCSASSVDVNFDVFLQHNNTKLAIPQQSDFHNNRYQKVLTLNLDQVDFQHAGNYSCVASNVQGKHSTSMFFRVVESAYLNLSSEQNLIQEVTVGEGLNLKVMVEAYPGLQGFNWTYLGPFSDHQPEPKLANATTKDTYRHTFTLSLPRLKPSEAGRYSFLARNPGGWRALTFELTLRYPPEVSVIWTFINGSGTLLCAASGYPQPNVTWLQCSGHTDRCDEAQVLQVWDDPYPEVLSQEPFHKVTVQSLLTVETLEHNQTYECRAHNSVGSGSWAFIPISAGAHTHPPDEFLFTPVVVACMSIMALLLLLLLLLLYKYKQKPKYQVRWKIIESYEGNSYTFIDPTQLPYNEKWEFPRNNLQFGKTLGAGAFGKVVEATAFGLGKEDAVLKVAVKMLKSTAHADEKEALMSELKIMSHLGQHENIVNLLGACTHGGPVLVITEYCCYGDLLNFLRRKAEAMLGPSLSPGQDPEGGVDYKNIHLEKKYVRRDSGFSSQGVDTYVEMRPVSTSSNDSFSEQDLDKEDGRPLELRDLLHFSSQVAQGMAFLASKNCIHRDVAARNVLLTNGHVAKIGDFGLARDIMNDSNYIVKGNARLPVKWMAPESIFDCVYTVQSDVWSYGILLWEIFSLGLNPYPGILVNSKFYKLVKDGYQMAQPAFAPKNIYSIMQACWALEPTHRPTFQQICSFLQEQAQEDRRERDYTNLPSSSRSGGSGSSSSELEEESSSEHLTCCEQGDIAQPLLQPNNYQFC
Sequence of c-Kit (P10721 26-976): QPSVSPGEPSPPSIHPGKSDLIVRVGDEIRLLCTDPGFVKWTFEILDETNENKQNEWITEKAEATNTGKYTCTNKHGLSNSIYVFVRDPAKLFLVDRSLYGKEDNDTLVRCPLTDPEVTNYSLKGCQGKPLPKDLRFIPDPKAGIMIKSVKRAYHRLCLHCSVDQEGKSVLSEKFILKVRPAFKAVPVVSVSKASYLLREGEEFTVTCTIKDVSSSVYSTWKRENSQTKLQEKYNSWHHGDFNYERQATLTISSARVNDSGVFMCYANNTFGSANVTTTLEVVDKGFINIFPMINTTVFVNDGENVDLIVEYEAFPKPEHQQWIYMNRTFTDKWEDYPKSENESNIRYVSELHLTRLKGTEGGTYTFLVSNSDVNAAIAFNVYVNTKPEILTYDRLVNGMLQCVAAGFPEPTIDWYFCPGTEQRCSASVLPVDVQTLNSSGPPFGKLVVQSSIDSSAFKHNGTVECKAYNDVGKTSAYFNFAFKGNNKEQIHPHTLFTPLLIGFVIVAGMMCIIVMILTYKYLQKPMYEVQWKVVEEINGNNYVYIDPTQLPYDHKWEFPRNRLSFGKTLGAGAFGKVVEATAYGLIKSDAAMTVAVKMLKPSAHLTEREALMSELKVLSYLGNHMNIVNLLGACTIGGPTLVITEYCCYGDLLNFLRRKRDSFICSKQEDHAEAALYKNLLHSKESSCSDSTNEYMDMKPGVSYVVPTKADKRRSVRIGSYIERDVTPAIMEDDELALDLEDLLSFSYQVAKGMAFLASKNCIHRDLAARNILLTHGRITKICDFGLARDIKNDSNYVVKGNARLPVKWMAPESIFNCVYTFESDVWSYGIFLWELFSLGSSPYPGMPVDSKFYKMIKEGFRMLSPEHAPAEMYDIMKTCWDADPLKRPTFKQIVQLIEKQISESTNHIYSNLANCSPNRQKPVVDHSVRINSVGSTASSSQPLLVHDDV
Sequence of PDGFRβ (P09619 33-1106): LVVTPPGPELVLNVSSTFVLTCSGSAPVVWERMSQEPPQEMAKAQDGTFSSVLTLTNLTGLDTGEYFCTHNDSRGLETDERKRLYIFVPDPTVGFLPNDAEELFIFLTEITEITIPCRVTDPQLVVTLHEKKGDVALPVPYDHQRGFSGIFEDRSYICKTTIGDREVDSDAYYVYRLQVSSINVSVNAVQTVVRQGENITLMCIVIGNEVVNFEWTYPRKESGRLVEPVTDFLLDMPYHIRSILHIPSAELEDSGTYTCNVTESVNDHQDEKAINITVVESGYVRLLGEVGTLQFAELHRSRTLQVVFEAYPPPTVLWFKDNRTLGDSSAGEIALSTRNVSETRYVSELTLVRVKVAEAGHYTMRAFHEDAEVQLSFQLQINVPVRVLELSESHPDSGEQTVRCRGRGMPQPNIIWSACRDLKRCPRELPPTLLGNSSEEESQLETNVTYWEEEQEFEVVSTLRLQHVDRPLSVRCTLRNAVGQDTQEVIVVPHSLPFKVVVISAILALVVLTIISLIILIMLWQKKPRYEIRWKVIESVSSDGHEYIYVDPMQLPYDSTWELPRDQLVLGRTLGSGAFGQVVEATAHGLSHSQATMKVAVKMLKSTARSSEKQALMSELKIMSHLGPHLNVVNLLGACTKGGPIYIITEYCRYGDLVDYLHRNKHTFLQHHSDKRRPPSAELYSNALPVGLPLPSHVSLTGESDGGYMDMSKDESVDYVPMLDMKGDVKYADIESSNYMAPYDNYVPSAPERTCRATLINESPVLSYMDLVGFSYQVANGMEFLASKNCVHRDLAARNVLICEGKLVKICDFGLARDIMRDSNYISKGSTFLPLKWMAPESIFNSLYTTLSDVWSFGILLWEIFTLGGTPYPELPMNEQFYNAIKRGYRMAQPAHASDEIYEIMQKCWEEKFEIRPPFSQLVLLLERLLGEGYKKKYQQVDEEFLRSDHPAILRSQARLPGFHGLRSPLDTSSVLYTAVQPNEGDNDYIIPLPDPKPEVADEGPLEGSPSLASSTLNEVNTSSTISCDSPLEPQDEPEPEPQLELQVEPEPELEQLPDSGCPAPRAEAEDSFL

`CCc1ccc(NC(=O)c2cc(NC(=O)c3cnc(C)s3)c(C)cc2F)nc1` [Example 82, N-[5-[(5-ethylpyridin-2-yl)carbamoyl]-4-fluoro-2-methylphenyl]-2-methyl-1,3-thiazole-5-carboxamide]: the IC50 at c-Kit is under 100 nM; at PDGFRα, over 1000 nM; against CSF1R it was over 1000 nM; against PDGFRβ, over 1000 nM; against FLT3, over 1000 nM; in assay [1] it was under 100 nM.

With `Cc1ncc(C(=O)Nc2cc(C(=O)Nc3cnc(N4CCC[C@@H]4C)cn3)c(F)cc2C)s1` [Example 83, N-(5-{N-5-[(S)-2-methyl-1-pyrrolidinyl]-2-pyrazinylcarbamoyl}-4-fluoro-2-tolyl)-2-methyl-1,3-thiazole-5-carboxamide], the IC50 on c-Kit is under 100 nM; on PDGFRα, over 1000 nM; against CSF1R, over 1000 nM; against PDGFRβ, over 1000 nM; against FLT3, over 1000 nM; in assay [1], under 100 nM.

For `Cc1ncc(C(=O)Nc2cc(C(=O)Nc3cnc(OCC(F)F)cn3)c(F)cc2C)s1` [Example 86, N-{5-[N-5-(2,2-difluoroethoxy)-2-pyrazinylcarbamoyl]-4-fluoro-2-tolyl}-2-methyl-1,3-thiazole-5-carboxamide], the IC50 was under 100 nM against c-Kit; 100 to 1000 nM against PDGFRα; over 1000 nM against CSF1R; over 1000 nM against PDGFRβ; over 1000 nM against FLT3; under 100 nM in assay [1].

Turning to `Cc1ncc(C(=O)Nc2cc(C(=O)Nc3cnc(OCC(F)(F)F)cn3)c(F)cc2C)s1` [Example 89, N-{5-[N-5-(2,2,2-trifluoroethoxy)-2-pyrazinylcarbamoyl]-4-fluoro-2-tolyl}-2-methyl-1,3-thiazole-5-carboxamide], the IC50 is under 100 nM at c-Kit; over 1000 nM against PDGFRα; over 1000 nM on CSF1R; over 1000 nM against PDGFRβ; over 1000 nM at FLT3; under 100 nM in assay [1].

With `Cc1ncc(C(=O)Nc2cc(C(=O)Nc3cnc(N4CCC[C@@H]4C(F)(F)F)cn3)c(F)cc2C)s1` [Example 96, N-[4-fluoro-2-methyl-5-[[5-[(2R)-2-(trifluoromethyl)pyrrolidin-1-yl]pyrazin-2-yl]carbamoyl]phenyl]-2-methyl-1,3-thiazole-5-carboxamide], the IC50 against c-Kit is under 100 nM; against PDGFRα, over 1000 nM; on CSF1R, over 1000 nM; on PDGFRβ, over 1000 nM; at FLT3, over 1000 nM; in assay [1], under 100 nM.

Regarding `Cc1cc(F)c(C(=O)N[C@H]2CCOC2)cc1NC(=O)c1cnc(NC(=O)N2CCC2)s1` [Example 102, 2-(Azetidine-1-carbonylamino)-N-[4-fluoro-2-methyl-5-[[(3S)-oxolan-3-yl]carbamoyl]phenyl]-1,3-thiazole-5-carboxamide], the IC50 was under 100 nM on c-Kit; over 1000 nM at PDGFRα; 100 to 1000 nM at CSF1R; over 1000 nM on PDGFRβ; over 1000 nM against FLT3; 100 to 1000 nM in assay [1].

Consider `Cc1cc(F)c(C(=O)NCC2(F)CC2)cc1NC(=O)c1cnc(NC(=O)N2CCC2)s1` [Example 103, 2-(Azetidine-1-carbonylamino)-N-[4-fluoro-5-[(1-fluorocyclopropyl)methylcarbamoyl]-2-methylphenyl]-1,3-thiazole-5-carboxamide], for which the IC50 was under 100 nM at c-Kit; 100 to 1000 nM against PDGFRα; over 1000 nM against CSF1R; 100 to 1000 nM against PDGFRβ; over 1000 nM on FLT3; under 100 nM in assay [1].

Regarding `Cc1cc(F)c(C(=O)Nc2ccc3c(n2)COCC3)cc1NC(=O)c1cnc(N)s1` [Example 114, 2-Amino-N-[5-(6,8-dihydro-5H-pyrano[3,4-b]pyridin-2-ylcarbamoyl)-4-fluoro-2-methylphenyl]-1,3-thiazole-5-carboxamide], the IC50 against c-Kit was under 100 nM; on PDGFRα it was 100 to 1000 nM; against CSF1R it was 100 to 1000 nM; against PDGFRβ, 100 to 1000 nM; at FLT3, over 1000 nM; in assay [1] it was under 100 nM.

For the molecule `Cc1cc(F)c(C(=O)Nc2ccc3c(n2)CCOC3)cc1NC(=O)c1cnc(N)s1` [Example 115, 2-Amino-N-[5-(7,8-dihydro-5H-pyrano[4,3-b]pyridin-2-ylcarbamoyl)-4-fluoro-2-methylphenyl]-1,3-thiazole-5-carboxamide], the IC50 is under 100 nM at c-Kit; over 1000 nM against PDGFRα; 100 to 1000 nM at CSF1R; over 1000 nM against PDGFRβ; over 1000 nM against FLT3; under 100 nM in assay [1].

Consider `Cc1cc(F)c(C(=O)Nc2ccc(O[C@H]3CCOC3)cn2)cc1NC(=O)c1cnc(N)s1` [Example 117, 2-Amino-N-[4-fluoro-2-methyl-5-[[5-[(3S)-oxolan-3-yl]oxypyridin-2-yl]carbamoyl]phenyl]-1,3-thiazole-5-carboxamide], for which the IC50 is under 100 nM at c-Kit; over 1000 nM on PDGFRα; over 1000 nM against CSF1R; over 1000 nM on PDGFRβ; over 1000 nM at FLT3; under 100 nM in assay [1].

As for `Cc1cc(F)c(C(=O)Nc2ccc(C3(C#N)CC3)cn2)cc1NC(=O)c1cnc(N)s1` [Example 118, 2-Amino-N-[5-[[5-(1-cyanocyclopropyl)pyridin-2-yl]carbamoyl]-4-fluoro-2-methylphenyl]-1,3-thiazole-5-carboxamide], the IC50 on c-Kit was under 100 nM; against PDGFRα it was over 1000 nM; at CSF1R it was 100 to 1000 nM; on PDGFRβ, 100 to 1000 nM; on FLT3 it was over 1000 nM; in assay [1], under 100 nM.

On to `Cc1cc(F)c(C(=O)NCC(F)(F)F)cc1NC(=O)c1cnc(N)s1` [Example 122, 2-Amino-N-[4-fluoro-2-methyl-5-(2,2,2-trifluoroethylcarbamoyl)phenyl]-1,3-thiazole-5-carboxamide], for which the half-maximal inhibitory concentration (IC50) was under 100 nM against c-Kit; over 1000 nM on PDGFRα; over 1000 nM on CSF1R; over 1000 nM against PDGFRβ; over 1000 nM on FLT3; under 100 nM in assay [1].

For `CO[C@H]1C[C@@H](NC(=O)c2cc(NC(=O)c3cnc(N)s3)c(C)cc2F)C1` [Example 123, 2-Amino-N-[4-fluoro-5-[(3-methoxycyclobutyl)carbamoyl]-2-methylphenyl]-1,3-thiazole-5-carboxamide], the IC50 is under 100 nM on c-Kit; over 1000 nM on PDGFRα; over 1000 nM at CSF1R; over 1000 nM at PDGFRβ; over 1000 nM against FLT3; under 100 nM in assay [1].

Consider `Cc1cc(F)c(C(=O)N[C@H]2C[C@@H](F)C2)cc1NC(=O)c1cnc(N)s1` [Example 124, 2-Amino-N-[4-fluoro-5-[(3-fluorocyclobutyl)carbamoyl]-2-methylphenyl]-1,3-thiazole-5-carboxamide], for which the IC50 was under 100 nM against c-Kit; over 1000 nM at PDGFRα; over 1000 nM against CSF1R; over 1000 nM at PDGFRβ; over 1000 nM against FLT3; under 100 nM in assay [1].

With `Cc1cc(F)c(C(=O)Nc2ccc(OC3CC3)cn2)cc1NC(=O)c1cnc(N)s1` [Example 129, 2-Amino-N-[5-[(5-cyclopropyloxypyridin-2-yl)carbamoyl]-4-fluoro-2-methylphenyl]-1,3-thiazole-5-carboxamide], the concentration for half-maximal inhibition (IC50) at c-Kit is under 100 nM; against PDGFRα, over 1000 nM; against CSF1R, 100 to 1000 nM; against PDGFRβ, 100 to 1000 nM; on FLT3, over 1000 nM; in assay [1], under 100 nM.

Consider `Cc1cc(F)c(C(=O)Nc2ccc(C3CC3)cn2)cc1NC(=O)c1cnc(N)s1` [Example 130, 2-Amino-N-[5-[(5-cyclopropylpyridin-2-yl)carbamoyl]-4-fluoro-2-methylphenyl]-1,3-thiazole-5-carboxamide], for which the 50% inhibitory concentration (IC50) on c-Kit is under 100 nM; against PDGFRα, 100 to 1000 nM; against CSF1R it was 100 to 1000 nM; against PDGFRβ, 100 to 1000 nM; against FLT3, over 1000 nM; in assay [1], under 100 nM.

As to `COc1ccc(NC(=O)c2cc(NC(=O)c3cnc(N)s3)c(C)cc2F)nc1` [Example 131, 2-Amino-N-[4-fluoro-5-[(5-methoxypyridin-2-yl)carbamoyl]-2-methylphenyl]-1,3-thiazole-5-carboxamide], the IC50 at c-Kit was under 100 nM; on PDGFRα it was over 1000 nM; against CSF1R, over 1000 nM; on PDGFRβ, over 1000 nM; against FLT3 it was over 1000 nM; in assay [1], under 100 nM.

The record behind these values is patent US20250145606A1 (Arcus Biosciences, Inc., priority 2023, published 2025).
